Results on eleven compounds are retold here after patent US8207150B2, “17β-cyano-19-nor-androst-4-ene derivative, its use and medicaments comprising the derivative” (Bayer Pharma AG, priority 2007, dated 2012).

The target in experiment [1] is T1, mineralcorticoid receptor (Homo sapiens, UniProt P08235).
T1 sequence (P08235 1-984): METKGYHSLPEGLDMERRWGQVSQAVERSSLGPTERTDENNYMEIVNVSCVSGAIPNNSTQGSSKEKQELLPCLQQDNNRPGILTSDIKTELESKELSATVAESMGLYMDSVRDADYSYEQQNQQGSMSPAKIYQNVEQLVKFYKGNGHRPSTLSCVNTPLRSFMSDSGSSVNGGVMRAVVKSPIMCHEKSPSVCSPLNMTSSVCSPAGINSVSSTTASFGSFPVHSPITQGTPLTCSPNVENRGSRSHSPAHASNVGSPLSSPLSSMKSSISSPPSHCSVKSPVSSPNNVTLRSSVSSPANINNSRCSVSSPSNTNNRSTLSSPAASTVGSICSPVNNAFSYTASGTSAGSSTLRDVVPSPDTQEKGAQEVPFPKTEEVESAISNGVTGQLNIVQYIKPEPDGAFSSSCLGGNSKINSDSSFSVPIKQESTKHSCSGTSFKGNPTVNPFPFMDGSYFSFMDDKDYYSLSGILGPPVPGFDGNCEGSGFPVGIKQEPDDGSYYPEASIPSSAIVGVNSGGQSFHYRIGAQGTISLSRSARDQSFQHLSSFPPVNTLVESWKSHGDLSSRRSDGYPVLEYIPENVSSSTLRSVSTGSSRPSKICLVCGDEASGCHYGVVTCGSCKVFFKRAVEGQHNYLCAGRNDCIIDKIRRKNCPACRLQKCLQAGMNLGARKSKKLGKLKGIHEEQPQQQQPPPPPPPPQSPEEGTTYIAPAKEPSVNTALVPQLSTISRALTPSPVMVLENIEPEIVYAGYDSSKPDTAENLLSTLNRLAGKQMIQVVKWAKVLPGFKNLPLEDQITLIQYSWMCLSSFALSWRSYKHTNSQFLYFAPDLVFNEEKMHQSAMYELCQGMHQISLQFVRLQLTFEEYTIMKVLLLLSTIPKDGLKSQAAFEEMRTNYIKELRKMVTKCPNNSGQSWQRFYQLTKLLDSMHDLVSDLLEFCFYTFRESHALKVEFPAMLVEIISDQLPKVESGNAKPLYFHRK
Kind of experiment: MR antagonism, luciferase reporter cell line assay. Type of experiment: cell-based. The settings on record: 16 hours incubation, luminescence. Here is the method: The derivatives according to the invention having the general chemical formula 1 have a very strong gestagenic activity. […] They should therefore have in vivo potassium-retaining, natriuretic (antimeralcorticoid) action. These properties were determined using the test described below:
For the culturing of the cells used for the assay, the culture medium used was DMEM (Dulbecco's Modified Eagle Medium: […] of glucose; PAA, #E15-009) with 10% FCS (Biochrom, S0115, batch #615B), 4 mM L-glutamine, 1% penicillin/streptomycin, 1 mg/ml of G418 and 0.5 μg/ml of puromycin.
Reporter cell lines were grown in a density of 4×10^4 cells per hollow in white, nontransparent tissue culture plates in each case having 96 hollows (PerkinElmer, #P12-106-017) and kept in 6% DCC—FCS (activated carbon-treated serum, for the removal of interfering components contained in the serum). The compounds to be investigated were added eight days later, and the cells were incubated with the compounds for 16 hours. The experiments were carried out in triplicate. At the end of the incubation, the effector-containing medium was removed and replaced by lysis buffer. After luciferase assay substrate (promega, #E1501) had been added, the plates containing the 96 hollows were then introduced into a microplate luminometer (Pherastar, BMG labtech), and the luminescence was measured. The IC50 values were evaluated using software for the calculation of dose-activity relationships.

For a further experiment, the target named is T2, PR (Rattus norvegicus, UniProt Q63449).
T2 construct: The maintenance of pregnancy test on ovarectomized rats serves for the determination of the peripheral gestagenic activity of a compound; from tissue; host or cells: whole animal: pregnant, ovariectomized rats
T2 sequence (Q63449 1-923): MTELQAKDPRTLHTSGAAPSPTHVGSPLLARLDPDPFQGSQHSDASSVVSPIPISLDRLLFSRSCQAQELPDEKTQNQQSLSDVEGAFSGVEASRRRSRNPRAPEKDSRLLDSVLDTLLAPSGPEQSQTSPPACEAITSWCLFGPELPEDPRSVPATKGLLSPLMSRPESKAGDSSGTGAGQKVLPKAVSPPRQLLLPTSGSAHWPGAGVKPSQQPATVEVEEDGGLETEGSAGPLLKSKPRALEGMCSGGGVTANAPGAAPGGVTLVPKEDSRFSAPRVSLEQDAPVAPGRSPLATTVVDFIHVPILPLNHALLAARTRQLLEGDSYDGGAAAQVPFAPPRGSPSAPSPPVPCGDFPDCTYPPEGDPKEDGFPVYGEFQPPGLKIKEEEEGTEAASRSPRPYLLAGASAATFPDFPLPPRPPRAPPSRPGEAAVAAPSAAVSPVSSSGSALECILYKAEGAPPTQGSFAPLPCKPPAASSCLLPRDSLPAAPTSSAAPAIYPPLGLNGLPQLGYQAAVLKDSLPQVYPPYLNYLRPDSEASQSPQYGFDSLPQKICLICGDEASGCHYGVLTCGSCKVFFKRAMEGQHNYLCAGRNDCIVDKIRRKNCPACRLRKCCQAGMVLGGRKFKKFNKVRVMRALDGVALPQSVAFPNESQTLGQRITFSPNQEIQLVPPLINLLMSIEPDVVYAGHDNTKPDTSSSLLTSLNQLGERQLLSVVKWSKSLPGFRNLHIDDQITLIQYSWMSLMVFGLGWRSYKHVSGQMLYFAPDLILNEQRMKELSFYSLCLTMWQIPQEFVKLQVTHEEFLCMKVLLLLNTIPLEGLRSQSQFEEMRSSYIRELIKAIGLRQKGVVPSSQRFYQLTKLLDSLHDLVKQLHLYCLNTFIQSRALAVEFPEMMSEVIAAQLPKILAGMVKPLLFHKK
Kind of experiment: maintenance of pregnancy test on the rat. The class given is in vivo. Conditions: ovarectomized pregnant rats; for PR in vivo ED50: pregnancy-maintaining dose, s.c. once daily with oestrone 5 μg/kg/day. An excerpt: Carrying out the maintenance of pregnancy test on the rat:
In pregnant rats, the removal of the corpora lutea or oophorectomy induces an abortion. By means of the exogenous administration of progestins (gestagens) in combination with a suitable dose of an oestrogen, the maintenance of pregnancy is possible. The maintenance of pregnancy test on ovarectomized rats serves for the determination of the peripheral gestagenic activity of a compound.
Rats were paired overnight during proestrus. Pairing was checked on the morning of the following day by the appraisal of a vaginal smear. The presence of the sperm was evaluated here as day 1 of a commencing pregnancy. On day 8 of the pregnancy, the animals were ovarectomized under ether anaesthesia. The treatment with test compound and exogenous oestrogen (oestrone, 5 μg/kg/day) was carried out subcutaneously once daily from day 8 to day 15 or day 21 of the pregnancy. The first administration on day 8 was carried out two hours before oophorectomy. Intact control animals were given exclusively vehicle.
At the end of the experiment (day 15 or day 21), the animals were sacrificed under a CO2 atmosphere, and live foetuses (foetuses having a beating heart) and implantation sites (early resorptions and dead foetuses including autolysis and atrophic placentas) were counted in both uterine horns. On day 22, it was moreover possible to examine foetuses for malformations. In uteri without foetuses or implantation sites, the number of nidation sites was determined by staining with 10% strength ammonium sulphide solution. The maintenance of pregnancy rate was calculated as the quotient of the number of living foetuses and the total number of nidation sites (both resorbed and dead foetuses and nidation sites). For drospirenone, this value is 3.5 mg/kg/day.

Where [2] appears, read: MR Antagonism IC50, reporter cell lines.
[3] abbreviates: reporter cell lines, read-out: MR Antagonism IC50.

SMILES strings stand for the structures. Several values for one entry are separate records, joined by “and”; a condition that tells them apart may be missing. Equal values may be shown once. Read-outs that look alike come from different tables or passages of the source.

`C[C@@H]1CC2=CC(=O)CC[C@@H]2[C@H]2CC[C@@]3(C)[C@@H]([C@@H]4C[C@@H]4[C@@H]3C#N)[C@@H]21` (single isomer, unassigned) [17β-Cyano-15β,16β-methylene-7α-methyl-19-nor-androst-4-en-3-one]: the IC50 in experiment [1] (setting [2]) is 8.3 nM and 10.3 nM.

Take `CC[C@]1(C#N)[C@H]2C[C@H]2[C@H]2[C@@H]3[C@@H]4C[C@@H]4C4=CC(=O)CC[C@@H]4[C@H]3CC[C@@]21C` (single isomer, unassigned) [17β-cyano-17α-ethyl-6α,7α-methylene-15β,16β-methylene-19-nor-androst-4-en-3-one]: the “PR in vivo ED50” value at PR is given as 0.22 mg/kg/d s.c. In experiment [1] (setting [2]), this compound had an IC50 of 90.2 nM.

As to `C[C@@H]1CC2=CC(=O)CC[C@@H]2[C@H]2CC[C@@]3(C)[C@@H](CC[C@]3(C)C#N)[C@@H]21` [17β-Cyano-7α,17α-bismethyl-19-nor-androst-4-en-3-one], the “PR in vivo ED50” value on PR is 1 .0 mg/kg/d s.c. This compound showed an IC50 in experiment [1] (setting [2]) of 31 nM. In addition, in experiment [1] (reporter cell lines), the “MR Antagonism activity [% of the maximum effect]” value is 96.20 % of the maximum effect.

On to `C[C@@H]1CC2=CC(=O)CC[C@@H]2[C@H]2CC[C@]3(C)[C@@H](C#N)CC[C@H]3[C@@H]21` [17β-Cyano-7α-methyl-19-nor-androst-4-en-3-one], for which the “PR in vivo ED50” value at PR was 0.33 mg/kg/d s.c. Moreover, the “MR Antagonism activity [% of the maximum effect]” value in experiment [1] (reporter cell lines) is recorded as 108.02 % of the maximum effect. In experiment [1] (setting [3]), the concentration for half-maximal inhibition (IC50) was determined as 8.2 nM.

On to `C[C@]12CC[C@H]3[C@@H](CCC4=CC(=O)CC[C@@H]43)[C@@H]1[C@H]1C[C@H]1[C@@H]2C#N` [17β-Cyano-15α,16α-methylene-19-nor-androst-4-en-3-one], for which the “PR in vivo ED50” value on PR came to 0.8 mg/kg/d s.c. In experiment [1] (reporter cell lines), the “MR Antagonism activity [% of the maximum effect]” value was 93.01 % of the maximum effect. In experiment [1] (setting [3]), the IC50 was 16 nM.

As for `C[C@]12CC[C@H]3[C@@H](CCC4=CC(=O)CC[C@@H]43)[C@@H]1[C@@H]1C[C@@H]1[C@@H]2C#N` [17β-Cyano-15β,16β-methylene-19-nor-androst-4-en-3-one], the “PR in vivo ED50” value on PR is listed as 0.84 mg/kg/d s.c. Moreover, the “MR Antagonism activity [% of the maximum effect]” value in experiment [1] (reporter cell lines) is on record as 95.57 % of the maximum effect. Further, the IC50 in experiment [1] (setting [3]) turned out to be 4.5 nM.

For the compound `C[C@]12CC[C@H]3[C@@H](C=CC4=CC(=O)CC[C@@H]43)[C@@H]1[C@@H]1C[C@@H]1[C@@H]2C#N` [17β-Cyano-15β,16β-methylene-19-nor-androsta-4,6-dien-3-one], the “PR in vivo ED50” value on PR was 3.3 mg/kg/d s.c. Besides, the “MR Antagonism activity [% of the maximum effect]” value in experiment [1] (reporter cell lines) is recorded as 108.51 % of the maximum effect. In addition, the IC50 in experiment [1] (setting [3]) came out at 15 nM.

Consider `CC[C@]1(C#N)[C@H]2C[C@H]2[C@H]2[C@@H]3CCC4=CC(=O)CC[C@@H]4[C@H]3CC[C@@]21C` [17β-Cyano-17α-ethyl-15β,16β-methylene-19-nor-androst-4-en-3-one], for which the “PR in vivo ED50” value on PR is listed as 1.9 mg/kg/d s.c. Moreover, in experiment [1] (reporter cell lines), the “MR Antagonism activity [% of the maximum effect]” value is listed as 106.4 % of the maximum effect. Besides, the IC50 in experiment [1] (setting [3]) amounted to 440 nM.

On to `C[C@]1(C#N)[C@H]2C[C@H]2[C@H]2[C@@H]3CCC4=CC(=O)CC[C@@H]4[C@H]3CC[C@@]21C` [17β-Cyano-17α-methyl-15β,16β-methylene-19-nor-androst-4-en-3-one], for which, at PR, the “PR in vivo ED50” value is 0.8 mg/kg/d s.c. Besides, the “MR Antagonism activity [% of the maximum effect]” value in experiment [1] (reporter cell lines) is listed as 96.00 % of the maximum effect. The IC50 in experiment [1] (setting [3]) came out at 29 nM.

As for `C[C@]1(C#N)[C@H]2C[C@H]2[C@H]2[C@@H]3C=CC4=CC(=O)CC[C@@H]4[C@H]3CC[C@@]21C` [17β-Cyano-17α-methyl-15β,16β-methylene-19-nor-androsta-4,6-dien-3-one], the “PR in vivo ED50” value on PR is 2.1 mg/kg/d s.c. In addition, the “MR Antagonism activity [% of the maximum effect]” value in experiment [1] (reporter cell lines) is recorded as 114 % of the maximum effect. Further, the IC50 in experiment [1] (setting [3]) turned out to be 190 nM.

On to `C[C@]12CCC(=O)C=C1[C@@H]1C[C@@H]1[C@H]1[C@@H]3[C@@H]4C[C@@H]4[C@@]4(CCC(=O)O4)[C@@]3(C)CC[C@@H]12` [drospirenone, 6β,7β-15β,16β-dimethylene-3-oxo-17-pregn-4-ene-21,17β-carbolactone, reference compound], for which, on PR (subcutaneously once daily with oestrone 5 μg/kg/day), the “pregnancy-maintaining dose (ED50)” value is 3.5 mg/kg/day.
